Assay results from patent publication US20210114983A1, “Cathepsin C inhibitors” (National Institute of Biological Sciences, Beijing, priority 2018, published 2021).

biological target: rhCatC (Cathepsin C) (Homo sapiens, UniProt P53634); assay: In Vitro CatC Enzyme Assay; type: biochemical; settings: read-out: Cat C Enzy (Cathepsin C inhibitory activity, IC50)
Experimental: In Vitro CatC Enzyme Assay
The CatC enzyme assay was performed in black 384-well plate. Firstly, rhCatC (440 nM) was activated by rhCatL (300 nM) in activation buffer (25 mM MES, 5 mM DTT, pH 6.0) at room temperature for 2 h and then activated rhCatC was diluted to 4.4 nM in assay buffer (25 mM MES, 50 mM NaCl, 5 mM DTT, 0.01% (v/v) Triton X100, pH 6.0), 14 μL activated rhCatC and 1 μL compound in 10% DMSO or 10% DMSO were incubated at room temperature for 3 h, and 5 μL substrate (Gly-Phe-AFC) was added to final concentration of 100 μM. After 60 min reaction, the product of the reaction was measured in the Enspire plate reader using Ex λ400 nm and Em λ505 nm for AFC. A standard irreversible CatC inhibitor 10 by AstraZeneca (J. Med. Chem. 2014, 57, 2357-2367) was used as an inhibitor control in the assay.

Chain of rhCatC (Cathepsin C) (P53634 25-134 limits assumed): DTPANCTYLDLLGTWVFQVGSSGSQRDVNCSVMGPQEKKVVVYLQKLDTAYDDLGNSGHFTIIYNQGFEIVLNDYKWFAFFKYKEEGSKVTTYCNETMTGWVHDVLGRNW
Chain of rhCatC (Cathepsin C) (P53634 231-394 limits assumed): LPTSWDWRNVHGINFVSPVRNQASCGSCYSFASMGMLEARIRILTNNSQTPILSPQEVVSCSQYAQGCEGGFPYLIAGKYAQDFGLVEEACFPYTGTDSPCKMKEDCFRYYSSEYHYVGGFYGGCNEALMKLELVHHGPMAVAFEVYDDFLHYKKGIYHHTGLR
Chain of rhCatC (Cathepsin C) (P53634 395-463 limits assumed): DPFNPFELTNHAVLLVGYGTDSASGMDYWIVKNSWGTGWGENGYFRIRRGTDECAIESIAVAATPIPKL

Row | SMILES | IC50
1 | C=CC(=O)Nc1cc(Oc2cccc(Nc3ccc(N4CCN(C)CC4)cc3OC)n2)ccc1OC [Compound 40, N-(2-methoxy-5-((6-((2-methoxy-4-(4-methylpiperazin-1-yl)phenyl)amino)pyridin-2-yl)oxy)phenyl)acrylamide] | 0.3 to 30 µM
2 | C=CC(=O)Nc1cccc(Oc2nc(Nc3ccc(N4CCN(C)CC4)cc3OC)ccc2N2CCCC2)c1C [Compound 41, N-(3-((6-((2-methoxy-4-(4-methylpiperazin-1-yl)phenyl)amino)-3-(pyrrolidin-1-yl)pyridin-2-yl)oxy)-2-methylphenyl)acrylamide] | 0.3 to 30 µM
3 | C=CC(=O)Nc1ccc(C)c(Oc2nc(Nc3ccc(N4CCN(C)CC4)cc3OC)ccc2N2CCCC2)c1 [Compound 42, N-(3-((6-((2-methoxy-4-(4-methylpiperazin-1-yl)phenyl)amino)-3-(pyrrolidin-1-yl)pyridin-2-yl)oxy)-4-methylphenyl)acrylamide] | 0.3 to 30 µM
4 | COc1cc(N2CCN(C)CC2)ccc1Nc1ccc(N2CCCCC2)c(Oc2ccc(C)c(NC(=O)C=C(C)C)c2)n1 [Compound 46, N-(5-((6-((2-methoxy-4-(4-methylpiperazin-1-yl)phenyl)amino)-3-(piperidin-1-yl)pyridin-2-yl)oxy)-2-methylphenyl)-3-methylbut-2-enamide] | 0.3 to 30 µM
5 | CC#CC(=O)Nc1cc(Oc2nc(Nc3ccc(N4CCN(C)CC4)cc3OC)ccc2N2CCCCC2)ccc1C [Compound 47, N-(5-((6-((2-methoxy-4-(4-methylpiperazin-1-yl)phenyl)amino)-3-(piperidin-1-yl)pyridin-2-yl)oxy)-2-methylphenyl)but-2-ynamide] | 0.3 to 30 µM
6 | C=C(F)C(=O)Nc1cc(Oc2nc(Nc3ccc(N4CCN(C)CC4)cc3OC)ccc2N2CCCCC2)ccc1C [Compound 49, 2-fluoro-N-(5-((6-((2-methoxy-4-(4-methylpiperazin-1-yl)phenyl)amino)-3-(piperidin-1-yl)pyridin-2-yl)oxy)-2-methylphenyl)acrylamide] | 0.3 to 30 µM
7 | C=CC(=O)Nc1cccc(Oc2nc(Nc3ccc(N4CCN(C)CC4)cc3OC)ccc2N2CCCCC2)c1 [Compound 52, N-(3-((6-((2-methoxy-4-(4-methylpiperazin-1-yl)phenyl)amino)-3-(piperidin-1-yl)pyridin-2-yl)oxy)phenyl)acrylamide] | 0.003 to 0.3 µM
8 | C=CC(=O)Nc1cccc(Oc2nc(Nc3ccc(N4CCN(C)CC4)cc3OC)ccc2N2CCCCCC2)c1 [Compound 53, N-(3-((3-(azepan-1-yl)-6-((2-methoxy-4-(4-methylpiperazin-1-yl)phenyl)amino)pyridin-2-yl)oxy)phenyl)acrylamide] | 0.003 to 0.3 µM
9 | C=CC(=O)Nc1cc(Oc2nc(Nc3ccc(N4CCNCC4)cc3OC)ccc2N2CCCCC2)ccc1C [Compound 54] | 0.003 to 0.3 µM
10 | C=CC(=O)Nc1cc(Oc2nc(Nc3ccc(N4CCC(N(C)C)CC4)cn3)ccc2N2CCCCC2)ccc1C [Compound 55] | 0.3 to 30 µM
11 | C#CCN1CCN(c2ccc(Nc3ccc(N4CCCCC4)c(Oc4ccc(C)c(NC(=O)C=C)c4)n3)c(OC)c2)CC1 [Compound 56] | 0.003 to 0.3 µM

Further lines, results first:

Row | IC50 | SMILES
12 | 0.003 to 0.3 µM | C=CC(=O)Nc1cc(Oc2nc(Nc3ccc(N4CCN(C)CC4)nc3OC)ccc2N2CCCCC2)ccc1C [Compound 35, N-(5-((6-((2-methoxy-6-(4-methylpiperazin-1-yl)pyridin-3-yl)amino)-3-(piperidin-1-yl)pyridin-2-yl)oxy)-2-methylphenyl)acrylamide]
13 | 0.003 to 0.3 µM | C=CC(=O)Nc1cc(Oc2nc(Nc3ccc(N4CCN(C(C)=O)CC4)cc3OC)ccc2N2CCCCC2)ccc1C [Compound 36, N-(5-((6-((4-(4-acetylpiperazin-1-yl)-2-methoxyphenyl)amino)-3-(piperidin-1-yl)pyridin-2-yl)oxy)-2-methylphenyl)acrylamide]
14 | 0.003 to 0.3 µM | C=CC(=O)Nc1cc(Oc2nc(Nc3ccc(N4CCC(N(C)C)CC4)cc3OC)ccc2N2CCCCC2)ccc1C [Compound 37, N-(5-((6-((4-(4-(dimethylamino)piperidin-1-yl)-2-methoxyphenyl)amino)-3-(piperidin-1-yl)pyridin-2-yl)oxy)-2-methylphenyl)acrylamide]
15 | 0.003 to 0.3 µM | C=CC(=O)Nc1cc(Oc2nc(Nc3ccc(N4CCN(C)CC4)cc3)ccc2N2CCCCC2)ccc1C [Compound 38, N-(2-methyl-5-((6-((4-(4-methylpiperazin-1-yl)phenyl)amino)-3-(piperidin-1-yl)pyridin-2-yl)oxy)phenyl)acrylamide]
16 | 0.003 to 0.3 µM | C=CC(=O)Nc1cc(Oc2nc(Nc3ccc(N4CCN(C)CC4)cc3OC)ccc2N2CCCC2)ccc1OC [Compound 39, N-(2-methoxy-5-((6-((2-methoxy-4-(4-methylpiperazin-1-yl)phenyl)amino)-3-(pyrrolidin-1-yl)pyridin-2-yl)oxy)phenyl)acrylamide]
17 | 0.003 to 0.3 µM | C=CC(=O)Nc1cc(Oc2cccc(Nc3ccc(N4CCN(C)CC4)cc3OC)n2)ccc1C [Compound 43, N-(5-((6-((2-methoxy-4-(4-methylpiperazin-1-yl)phenyl)amino)pyridin-2-yl)oxy)-2-methylphenyl)acrylamide]
18 | 0.003 to 0.3 µM | C=CC(=O)Nc1cc(Oc2nc(Nc3ccc(N4CCN(C)CC4)cc3OC)ccc2N2CCCC2)ccc1C(F)(F)F [Compound 44, N-(5-((6-((2-methoxy-4-(4-methylpiperazin-1-yl)phenyl)amino)-3-(pyrrolidin-1-yl)pyridin-2-yl)oxy)-2-(trifluoromethyl)phenyl)acrylamide]
19 | 0.003 to 0.3 µM | C=CC(=O)Nc1cc(Oc2nc(Nc3ccc(N4CCN(C)CC4)cc3OC)ccc2N2CCCCC2)ccc1C(F)(F)F [Compound 45]
20 | 0.003 to 0.3 µM | C#CC(=O)Nc1cc(Oc2nc(Nc3ccc(N4CCN(C)CC4)cc3OC)ccc2N2CCCCC2)ccc1C [Compound 48, N-(5-((6-((2-methoxy-4-(4-methylpiperazin-1-yl)phenyl)amino)-3-(piperidin-1-yl)pyridin-2-yl)oxy)-2-methylphenyl)propiolamide]
21 | 0.003 to 0.3 µM | C=CC(=O)Nc1cc(Oc2nc(Nc3ccc(N4CCN(C)CC4)cc3OC)ccc2Cl)ccc1C(F)(F)F [Compound 50, N-(5-((3-chloro-6-((2-methoxy-4-(4-methylpiperazin-1-yl)phenyl)amino)pyridin-2-yl)oxy)-2-(trifluoromethyl)phenyl)acrylamide]
22 | 0.003 to 0.3 µM | C=CC(=O)Nc1cc(Oc2cccc(Nc3ccc(N4CCN(C)CC4)cc3OC)n2)ccc1C(F)(F)F [Compound 51, N-(5-((6-((2-methoxy-4-(4-methylpiperazin-1-yl)phenyl)amino)pyridin-2-yl)oxy)-2-(trifluoromethyl)phenyl)acrylamide]
